Patent publication US20160281125A1, “ANTIMICROBIAL COMPOUND SUSCEPTIBILITY TEST” (priority 2013, published 2016)

Assays:
K. pneumo BAA-1705 (KPC) = experiment: Selective lysis test, OD600, meropenem and cefotaxime (Example 2); type: cell-based, K. pneumoniae
Description: (§1) In this experiment the following strains were tested: strain K. pneumoniae 13882 (previously considered meropenem sensitive and cefotaxime sensitive); E. coli BAA-197 (ESBL) (which expresses an extended-spectrum (beta)-lactamase enzyme and was previously considered meropenem sensitive and cefotaxime resistant); K. pneumoniae BAA-1705 (KPC) (which expresses a carbapenemase enzyme and was previously considered meropenem resistant and cefotaxime resistant); and K. pneumoniae BAA-2146 (NDM1) (which expresses the metallo-beta-lactamase-1 enzyme and was previously considered meropenem resistant and cefotaxime resistant).
(§2) An isolated colony from an overnight Tryptocase Soy Agar (TSA) plate of each bacteria was suspended in 1 ml Tryptocase Soy Broth (TSB) in a 5 ml BD polystyrene round bottom tube. TSB cultures were incubated at 37° C. for 1.5 hours shaking. Three 250 μl aliquots of each stationary-phase culture were then transferred to three 2 ml Eppendorf microcentrifuge tubes. One tube contained 500 μl of Normal Saline (BD); the second tube contained 500 μl Normal Saline with meropenem at 10 μg/ml; and the third tube contained 500 μl Normal Saline with cefotaxime (abbreviated […]) at 10 μg/ml. Tubes were inverted then incubated at 37° C. stagnant for thirty minutes. Then […] of lysis buffer (0.5% SDS in PSB) was added to each tube and each tube was vortexed for 5 seconds. Post incubation, all tubes were spun at 10000 G for 5 minutes. Supernatant was decanted and the pellet resuspended in Normal Saline. Tubes were vortexed. OD600 was measured using Eppendorf uvettes in a spectrophotometer. The delta between the control and the meropenem normal saline, or the control and the cefotaxime normal saline was used to determine susceptibility.

[1] = tested on: K. pneumo BAA-2146 (NDM1); experiment: as above; type: cell-based, K. pneumoniae
Description: as §1, §2

K. pneumo 13882 = experiment: as above; type: cell-based, K. pneumoniae
Description: as §1, §2

[2] = tested on: K. pneumoniae strain BAA2146 NDM+; experiment: Carbapenem test, Triton fixation buffer and BacUni QuickFISH staining (Example 4); type: cell-based
Description: (§3) An isolated colony from an overnight Tryptocase Soy Agar (TSA) plate for each bacteria was suspended in 1 ml Tryptocase Soy Broth (TSB) in a 5 ml BD polystyrene round bottom tube. TSB cultures were incubated at 37° C. for 1.5 hours shaking. […] of each stationary-phase culture were transferred to 2 ml Eppendorf microcentrifuge tubes containing 500 μl of Normal Saline (BD); or 500 μl Normal Saline with imipenem, ertapenem, or meropenem at a concentration of […], […], or 40 μg/ml (26.67 μg/ml final concentration). Tubes were inverted then incubated at 37° C. stagnant for thirty minutes. Then 10 μl from each tube was pipetted onto plain glass slide on a 55° C. heat block, followed by 25 μl fixation buffer (0.5% T×100, 100 mM Tris pH 9, 24% Ethanol, and 10 mM NaCl); slide is incubated until sample is dry. Ten μl of BacUni QuickFISH hybridization buffer was added to each slide followed by a 22×22 mm coverslip. The slide was then incubated at 55° C. for 15 minutes. The slides were viewed on a fluorescence microscope 60× oil immersion on Dual TxR/FITC. Images were taken with a 1 second exposure.
(§4) The control fixation in this experiment has all the same components, except no Triton X-100. This was done to assess whether the selective lysis step is required to resolve a difference between susceptible and resistant bacteria.

[3] = tested on: K. pneumoniae strain 13882; experiment: as above; type: cell-based; conditions: K. pneumoniae 13882
Description: as §3, §4

E. coli strain 35218 = experiment: as above; type: cell-based; conditions: FIG. 9; E. coli 35218; 10 μg/ml
Description: as §3, §4

K. pneumo 8308 = experiment: Selective lysis test, OD600 turbidity (Example 1); type: cell-based, Klebsiella pneumoniae
Description: (§5) An isolated colony from an overnight Tryptocase Soy Agar (TSA) plate of each bacterial strain was suspended in 1 ml Tryptocasc Soy Broth (TSB) in a 5 ml BD polystyrene round bottom tube. TSB cultures were incubated shaking at 37° C. overnight. Ten of the overnight culture was inoculated into lml TSB and incubated shaking at 37° C. for three hours. Two […] aliquots of each log-phase culture were then transferred to two 2 ml Eppendorf microcentrifuge tubes. One tube contained 5000 of Normal Saline (BD); the second tube contained 5000 Normal Saline with meropenem at 10 μg/ml (final concentration of meropenem of 6.67 10 μg/ml). Tubes were inverted and then incubated at 37° C. stagnant for thirty minutes. Then […] of lysis buffer (0.5% SDS in PSB) (final concentration of SDS of 0.125%) was added to each tube and the tubes were vortexed for 5 seconds. Post incubation, all tubes were spun at 10000 G for 5 minutes. Supernatant was decanted and the pellet resuspended in Normal Saline. Tubes were vortexed again. OD600 was measured using Eppendorf uvettes in a spectrophotometer. The delta between the OD600 of the normal saline control and the OD600 for the test sample exposed to meropenem in normal saline was used to determine susceptibility of the bacterial strain to meropenem.

K. pneumo 700603 = experiment: Selective lysis test, OD600 turbidity (Example 1); type: cell-based, Klebsiella pneumoniae
Description: as §5

K. pneumo 33495 = experiment: Selective lysis test, OD600 turbidity (Example 1); type: cell-based, Klebsiella pneumoniae
Description: as §5

K. pneumo 9633 = experiment: Selective lysis test, OD600 turbidity (Example 1); type: cell-based, Klebsiella pneumoniae
Description: as §5

E. coli BAA-197 (ESBL) = experiment: Selective lysis test, OD600, meropenem and cefotaxime (Example 2); type: cell-based
Description: as §1, §2

K. oxy 43086 = experiment: Selective lysis test, OD600 turbidity (Example 1); type: cell-based, Klebsiella oxytoca
Description: as §5

[4] = OD600 vs control without meropenem
[5] = meropenem 10 μg/ml, 30 min, SDS lysis buffer + vortex

SMILES: C[C@@H](O)[C@H]1C(=O)N2C(C(=O)O)=C(S[C@@H]3CN[C@H](C(=O)N(C)C)C3)[C@H](C)[C@H]12 [meropenem]
- % diff (K. pneumo BAA-1705 (KPC); K. pneumo BAA-1705 (KPC), OD600 vs control): 16.6%
- OD600 (K. pneumo BAA-1705 (KPC); K. pneumo BAA-1705 (KPC), antibiotic 10 μg/ml, 30 min, SDS lysis buffer + vortex, 1.5 h culture): 0.423
- assay score (sensitive or resistant) (K. pneumo BAA-1705 (KPC); K. pneumoniae BAA-1705 (KPC)): resistant
- % diff ([1]; K. pneumo BAA-2146 (NDM1), OD600 vs control): −0.3%
- OD600 ([1]; K. pneumo BAA-2146 (NDM1), antibiotic 10 μg/ml, 30 min, SDS lysis buffer + vortex, 1.5 h culture): 0.301
- assay score (sensitive or resistant) ([1]; K. pneumoniae BAA-2146 (NDM1)): resistant
- % diff (K. pneumo 13882; K. pneumo 13882, OD600 vs control): 65.1%
- OD600 (K. pneumo 13882; K. pneumo 13882, antibiotic 10 μg/ml, 30 min, SDS lysis buffer + vortex, 1.5 h culture): 0.127
- assay score (sensitive or resistant) (K. pneumo 13882; K. pneumoniae 13882): sensitive
- BacUni QuickFISH stained intact cells after meropenem and fixation buffer ([2]; FIG. 8, 10 μg/ml meropenem, fixation buffer with 0.5% Triton X-100): near complete absence of BacUni QuickFISH™ stained intact cells
- test result (susceptibility or resistance) by BacUni QuickFISH staining ([2]; FIG. 11, 10 μg/ml): detect resistance
- BacUni QuickFISH stained intact cells after meropenem and fixation buffer ([3]; FIG. 7, 10 μg/ml meropenem, fixation buffer with 0.5% Triton X-100): near complete absence of BacUni QuickFISH™ stained intact cells
- test result (susceptibility or resistance) by BacUni QuickFISH staining ([3]; FIG. 10, 10 μg/ml): detect susceptibility
- test result (susceptibility or resistance) by BacUni QuickFISH staining (E. coli strain 35218): detect susceptibility
- R or S (K. pneumo 8308): S (a percentage change of greater than about 85% indicates a strain is susceptible)
- % Change (K. pneumo 8308; [4]): 98%
- Mero OD600 (K. pneumo 8308; [5]): 0.053
- R or S (K. pneumo 700603): S (a percentage change of greater than about 85% indicates a strain is susceptible)
- % Change (K. pneumo 700603; [4]): 94%
- Mero OD600 (K. pneumo 700603; [5]): 0.065
- R or S (K. pneumo 33495): S (a percentage change of greater than about 85% indicates a strain is susceptible)
- % Change (K. pneumo 33495; [4]): 95%
- Mero OD600 (K. pneumo 33495; [5]): 0.097
- R or S (K. pneumo 9633): S (a percentage change of greater than about 85% indicates a strain is susceptible)
- % Change (K. pneumo 9633; [4]): 99%
- Mero OD600 (K. pneumo 9633; [5]): 0.015
- assay score (sensitive or resistant) (E. coli BAA-197 (ESBL)): sensitive
- % diff (E. coli BAA-197 (ESBL); OD600 vs control): 87.3%
- OD600 (E. coli BAA-197 (ESBL); antibiotic 10 μg/ml, 30 min, SDS lysis buffer + vortex, 1.5 h culture): 0.046
- R or S (K. oxy 43086): S (a percentage change of greater than about 85% indicates a strain is susceptible)
- % Change (K. oxy 43086; [4]): 99%
- Mero OD600 (K. oxy 43086; [5]): 0.02
